Reference: patent publication US9963461B2, “Phillygenin ibuprofen ester, preparation method therefor, and application thereof” (priority 2014, dated 2018)
Marks after values point to notes of the source that are not given here.

Columns and labels:
[1] = system: mice pain induced by acetic acid; experiment: Analgesic test, mice writhing induced by acetic acid; format: in vivo, Kunming mice; details: 200 mg/kg intragastric; within 15 min after 0.7% acetic acid
Description: 72 Kunming mice were randomly divided into 6 groups, with 12 mice for each group. (1) the blank normal control group (i.e. saline group, […]); (2) positive drug aspirin group (200 mg/kg); (3) ibuprofen group (300 mg/kg); (4) high dose group of phillygenin ibuprofen ester (300 mg/kg); (5) medium dose group of phillygenin ibuprofen ester (150 mg/kg); (6) low dose group of phillygenin ibuprofen ester (75 mg/kg). […] The number of mice writhings within 15 min after administration was recorded. The number of writhings was taken as the evaluation index to evaluate the analgesic effect.

[2] = system: rat toe swelling induced by carrageenan; experiment: Rat toe swelling induced by carrageenan; format: in vivo, Wistar rats; details: 200 mg/kg sublingual intravenous injection
Description: The test groups were administered by sublingual intravenous injection. Before the test, capillary magnification measurement method was used to measure the normal volume of the right hind foot of the rats in each group. To avoid errors, the measurement location was fixed and the operation was made by one person both before and after the administration. The average value of the two measurements was taken as the normal volume of the right hind foot of the rats before administration. […] The difference between the groups was compared by inter-group t test processing through the difference percentage (swelling ratio) of the paw volume before and after the induced rat inflammation.

[3] = system: rabbit fever induced by typhoid and paratyphoid vaccine; experiment: Rabbit fever induced by typhoid and paratyphoid vaccine; format: in vivo, Japanese white rabbits; details: 50 mg/kg
Description: Japanese male big-ear white rabbits, weighing 1.5-2.0 kg. Before the test, WSC-411P portable digital thermometer was used to measure the normal rectal temperature twice (with certain interval for each time), and the average value was taken as the normal body temperature. Then 48 Japanese big-ear white rabbits with body temperature of 38-39.6° C. were selected and randomly divided into 8 groups by weight, namely: the blank control (normal saline) group, the model control (0.5% carboxymethylcellulose) group, the ibuprofen group (300 mg/kg), the phillygenin group (10 mg/kg), the 1.25, 2.5, and 5 mg/kg phillygenin ibuprofen ester groups and the positive drug paracetamol (50 mg/kg) group. The rabbits were fixed in a fixator. The blank control group was intravenously injected with normal saline of 1 ml/kg via the ear margin; The model control group and the drug groups were intravenously injected with typhoid and paratyphoid vaccines of 0.8 ml/kg via the ear margin. When the body temperature rise of the rabbits was greater than 1° C. (requiring about 1-1.5 h, which was restricted to 1 h in this test), the blank control group and the model group were administered intragastrically with 0.5% carboxymethycellulose of 1 ml/kg, and the drug groups were administered intragastrically with phillygenin ibuprofen ester and paracetamol. […]

[4] = system: beer yeast induced rat fever; experiment: Beer yeast induced rat fever; format: in vivo, Wistar rats; details: 100 mg/kg
Description: Male Wistar rats were selected, weighing 180-200 g. Before the test, WSC-411P portable digital thermometer was used to measure the normal rectal temperature twice (with certain interval for each time), and the average value of the two measurements was taken as the normal body temperature of the rat. Then 70 rats with the body temperature between 36.5° C. and 38° C. were chosen to be randomly divided into 7 groups by weight: the model (0.5% carboxymethylcellulose) group, the 2.5, 5, and 10 mg/kg phillygenin ibuprofen ester groups, the positive drug paracetamol (100 mg/kg) group, the ibuprofen group (i.e. prodrug control group, 300 mg/kg), the phillygenin group (100 mg/kg), with 10 rats for each group. Each group of rats were subjected to back subcutaneous injection with 10% fresh beer yeast suspension of 10 ml/kg to induce heat. After administration of 10% fresh beer yeast suspension for 6.0 h, phillygenin ibuprofen ester and paracetamol were both subjected to intragastric administration, and the model group was intragastrically administrated with equal volume of 0.5% carboxymethylcellulose. Rectal temperature was measured after 1 h, 2 h, 3 h and 4 h of the administration respectively. Changes in the body temperature were observed and difference between the groups was compared by inter-group t test processing through antipyretic percentage.

[5] = system: sweat gland epithelial cells at the rat toe part; experiment: Sweat secretion of rat paw part (tissue morphology observation method); format: in vivo, Wistar rats; details: rat toe part; 35.0 mg/kg subcutaneous
From the text: This test was based on the mechanism that when rat sweat gland is excited, in addition to sweat secretion increase, the morphology of sweat gland epithelial cell is also changed. The number increase and expansion of empty cells of the sweat gland epithelial cells can be seen under the optical microscope. Such enlarged vacuole presents mitochondrial in sweat gland epithelial cells swelling, rupture, fusion and secretory vesicle enlargement under the electron microscope, and through the morphological observation of the sweat gland epithelial cell at the rat paw part, the secretory activity of the sweat gland can be known. In the test, 70 Wistar rats were selected, with equal male and female number, weighing 120-160 g. […] Besides that subcutaneous injection was used for the pilocarpine solution, intragastric administration was used for all the other groups.

[6] = system: sweat secretion of rat paw part; experiment: Sweat secretion of rat paw part (coloring method); format: in vivo, Wistar rats; details: 35.0 mg/kg subcutaneous; for Animal number of sweat points of level +: + = sweat area below about 10%; for Animal number of sweat points of level ++: ++ = sweat area about 11-40%; for Animal number of sweat points of level +++: +++ = sweat area about 41-70%; for Animal number of sweat points of level ++++: ++++ = sweat area over 71%; for Animal number of sweat points of level −: − = no sweat point
From the text: This test was designed to observe the change of sweat secretion based on the mechanism that sweat gland is distributed on the rat paw pads, and iodine and starch can have purple reaction when encountered with sweat. In the test, 350 Wistar rats were selected, with equal male and female number, weighing 120-150 g. […] The rats were placed in a self-made rat fixation bag, with the double hind limbs exposed. The dirts on the right paw was gently scrubbed clean with the cotton swab dipped with anhydrous ethanol. Besides that subcutaneous injection was used for the pilocarpine solution, intragastric administration was used for all the other groups. […] When the test was complete, statistical process was carried out according to the rank-sum test with two-sample comparison, in order to compare the difference between the groups.

influenza virus [7] = format: in vivo, Kunming mice; details: lung suspensions, influenza virus infected mice; 58.5 mg/kg/d, 5 days
influenza virus [8] = experiment: Impact of the drugs on the virus-induced cytopathy (MTT); format: cell-based
Enterovirus EV71 = experiment: as above; format: cell-based; details: EV71 100 TCID50, Vero cells, about the maximal non-cytotoxic concentration, 72 hours
[9] = system: Coxsackie virus A16 (CoxA16); experiment: as above; format: cell-based; details: CoxA16 100 TCID50, Vero cells, about the maximal non-cytotoxic concentration, 72 hours
Adenovirus (AdV) = experiment: as above; format: cell-based; details: ADV 100 TCID50, Vero cells, about the maximal non-cytotoxic concentration, 72 hours
parainfluenza virus [10] = experiment: as above; format: cell-based; details: parainfluenza virus 100 TCID50, Vero cells, about the maximal non-cytotoxic concentration, 72 hours
[11] = system: respiratory syncytial virus (RSV); experiment: as above; format: cell-based; details: RSV 100 TCID50, Vero cells, about the maximal non-cytotoxic concentration, 72 hours
parainfluenza virus [12] = format: in vivo, Kunming mice; details: lung suspensions, parainfluenza virus infected mice; 58.5 mg/kg/d, 5 days
[13] = system: coxsackie virus B3 (CVB3); experiment: Impact of the drugs on the virus-induced cytopathy (MTT); format: cell-based; details: CVB3 100 TCID50, Vero cells, about the maximal non-cytotoxic concentration, 72 hours
[14] = system: Herpes Simplex Virus type I (HSV-1); experiment: as above; format: cell-based; details: HSV-I 100 TCID50, Vero cells, about the maximal non-cytotoxic concentration, 72 hours
[15] = time after administration (min) 30
[16] = time after administration (min) 60
[17] = time after administration (min) 90
[18] = time after administration (min) 120
[19] = time after administration (min) 180
[20] = after coating B liquid for 1 minute
[21] = after coating B liquid for 5 minutes
[22] = after coating B liquid for 10 minutes
[23] = after coating B liquid for 15 minutes (Table 2-4)
[24] = after coating B liquid for 15 minutes (Table 2-5)

## CC(=O)Oc1ccccc1C(=O)O [Aspirin]
[1]
  Writhing times: 5.0*
[2]; 30 min
  Swelling ratio (%): 0.120 ± 0.138 %
[2]; 60 min
  Swelling ratio (%): 0.168 ± 0.172 %
[2]; 120 min
  Swelling ratio (%): 0.215 ± 0.178 %
[2]; 180 min
  Swelling ratio (%): 0.343 ± 0.337 %
[2]; 240 min
  Swelling ratio (%): 0.470 ± 0.289 %
[2]; 300 min
  Swelling ratio (%): 0.690 ± 0.369%
[2]; 360 min
  Swelling ratio (%): 0.525 ± 0.338 %

## CC(=O)Nc1ccc(O)cc1 [Paracetamol]
[3]; [15]
  Body temperature (° C.): 40.53 ± 0.68 °C
  antipyretic percentage (%): −1.14 ± 0.59 %
[3]; [16]
  Body temperature (° C.): 40.10 ± 0.48 °C
  antipyretic percentage (%): −2.18 ± 0.16 %
[3]; [17]
  Body temperature (° C.): 39.83 ± 0.57 °C
  antipyretic percentage (%): −2.83 ± 0.16 %
[3]; [18]
  Body temperature (° C.): 39.72 ± 0.54 °C
  antipyretic percentage (%): −3.11 ± 0.29 %
[3]; [19]
  Body temperature (° C.): 39.61 ± 0.48 °C
  antipyretic percentage (%): −3.38 ± 0.25 %
[4]; 1 h after administration
  Body temperature (° C.): 38.66 ± 0.58 °C
  antipyretic percentage (%): −2.07 ± 0.54 %
[4]; 2 h after administration
  Body temperature (° C.): 38.19 ± 0.59 °C
  antipyretic percentage (%): −3.27 ± 0.77 %
[4]; 3 h after administration
  Body temperature (° C.): 37.98 ± 0.19 °C
  antipyretic percentage (%): −3.80 ± 1.43 %
[4]; 4 h after administration
  Body temperature (° C.): 37.84 ± 0.32 °C
  antipyretic percentage (%): −4.15 ± 1.59 %

## CC[C@@H]1C(=O)OC[C@@H]1Cc1cncn1C [Pilocarpine]
[5]
  Number of sweat glands of vacuole: 57
  Void fraction (%): 27.40*** %
[6]; [20]
  Animal number of sweat points of level +: 1
  Animal number of sweat points of level ++: 3
  Animal number of sweat points of level +++: 1
  Animal number of sweat points of level ++++: 5
  Animal number of sweat points of level −: 0
[6]; [21]
  Animal number of sweat points of level +: 1
  Animal number of sweat points of level ++: 2
  Animal number of sweat points of level +++: 1
  Animal number of sweat points of level ++++: 6
  Animal number of sweat points of level −: 0
[6]; [22]
  Animal number of sweat points of level +: 1
  Animal number of sweat points of level ++: 2
  Animal number of sweat points of level +++: 1
  Animal number of sweat points of level ++++: 6
  Animal number of sweat points of level −: 0
[6]; [23]
  Animal number of sweat points of level +: 0
  Animal number of sweat points of level ++: 2
  Animal number of sweat points of level +++: 1
  Animal number of sweat points of level ++++: 6
  Animal number of sweat points of level −: 0
[6]; [24]
  Animal number of sweat points of level +: 0
  Animal number of sweat points of level ++: 2
  Animal number of sweat points of level +++: 1
  Animal number of sweat points of level ++++: 6
  Animal number of sweat points of level −: 0

## NC(=O)c1ncn([C@@H]2O[C@H](CO)[C@@H](O)[C@H]2O)n1 [Ribavirin, ribavirin]
Influenza virus [7]
  Hemagglutination titer (InX): 21.91 ± 1.050
  Hemagglutination titer Inhibitive rate (%): 32.39%
Influenza virus [8]
  antiviral effective rate (ER %): 57.49* %
Enterovirus EV71
  antiviral effective rate (ER %): 4.25%
[9]
  antiviral effective rate (ER %): 0.70%
Adenovirus (AdV)
  antiviral effective rate (ER %): 0.43%
Parainfluenza virus [10]
  antiviral effective rate (ER %): 81.56** %
[11]
  antiviral effective rate (ER %): 50.08* %
Parainfluenza virus [12]
  Hemagglutination titer (InX): 23.22 ± 1.091
  Hemagglutination titer Inhibitive rate (%): 24.53%
[13]
  antiviral effective rate (ER %): 13.44%
[14]
  antiviral effective rate (ER %): 60.92* %
